From US20200024278A1, “COMPOSITION COMPRISING ANTIBIOTIC COMPOUND AND AN HETEROCYCLIC COMPOUND AND THEIR USE IN PREVENTING OR TREATING BACTERIAL INFECTIONS” (MUTABILIS, priority 2016, published 2020)

What was measured:
Assay in all cases: MIC, broth microdilution (CLSI), substance alone or ATB combined with compound at 4 or 8 μg/mL
ECO UFR39 = format: cell-based, E. coli; conditions: ECO UFR39
Outline: (§1)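 Antibiotic MICs were determined in presence of fixed compound at 4 or 8 μg/mL, and compound MICs alone, by visual growth inhibition. Inoculum 5·10^5 CFU/mL in ca-MHB, incubated 35 °C for 16-20 h per CLSI-M7-A7. Glucose-6-phosphate (25 μg/ml) added when fosfomycin was tested.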

ECO 190317 = format: cell-based, E. coli; conditions: ECO 190317
Outline: as §1

ECL P99 = format: cell-based, E. cloacae; conditions: ECL P99
Outline: as §1

SAU 29213 = format: cell-based, S. aureus; conditions: SAU 29213
Outline: as §1

KPN BAA-1898 = format: cell-based, K. pneumoniae; conditions: KPN BAA-1898
Outline: as §1

KPN 6299 = format: cell-based, K. pneumoniae
Outline: as §1

- MIC ATB alone (ECO UFR39; antibiotic alone): 0.5 µg/mL
- MIC ATB combined with Example 1 @8 μg/ml (ECO UFR39; with Example 1 @8 μg/ml): <0.031 µg/mL
- MIC ATB combined with Example 1 @8 μg/ml (ECO UFR39; with Example 1 at 8 μg/ml): <0.031 µg/mL
- MIC ATB combined with Example 7 @8 μgml (ECO UFR39; with Example 7 at 8 μg/ml): <0.031 µg/mL
- MIC ATB combined with Example 9 @4 μg/ml (ECO UFR39; with Example 9 @4 μg/ml): <0.031 µg/mL
- MIC ATB combined with Example 9 @4 μg/ml (ECO UFR39; with Example 9 at 4 μg/ml): <0.031 µg/mL
- MIC ATB combined with Example 11 @8 μg/ml (ECO UFR39; with Example 11 at 8 μg/ml): <0.031 µg/mL
- MIC ATB combined with Example 12 @8 μg/ml (ECO UFR39; with Example 12 at 8 μg/ml): <0.031 µg/mL
- MIC ATB combined with Example 13 @8 μg/ml (ECO UFR39; with Example 13 at 8 μg/ml): <0.031 µg/mL
- MIC ATB combined with Example 14 @8 μg/ml (ECO UFR39; with Example 14 at 8 μg/ml): <0.031 µg/mL
- MIC ATB combined with Example 15 @4 μgml (ECO UFR39; with Example 15 at 4 μg/ml): <0.031 µg/mL
- MIC ATB combined with Example 16 @4 μg/ml (ECO UFR39; with Example 16 at 4 μg/ml): <0.031 µg/mL
- MIC ATB alone (ECO 190317; antibiotic alone): 0.25 µg/mL
- MIC ATB combined with Example 1 @8 μg/ml (ECO 190317; with Example 1 @8 μg/ml): <0.031 µg/mL
- MIC ATB combined with Example 1 @8 μg/ml (ECO 190317; with Example 1 at 8 μg/ml): <0.031 µg/mL
- MIC ATB combined with Example 7 @8 μgml (ECO 190317; with Example 7 at 8 μg/ml): <0.031 µg/mL
- MIC ATB combined with Example 9 @4 μg/ml (ECO 190317; with Example 9 @4 μg/ml): <0.031 µg/mL
- MIC ATB combined with Example 9 @4 μg/ml (ECO 190317; with Example 9 at 4 μg/ml): <0.031 µg/mL
- MIC ATB combined with Example 11 @8 μg/ml (ECO 190317; with Example 11 at 8 μg/ml): <0.031 µg/mL
- MIC ATB combined with Example 12 @8 μg/ml (ECO 190317; with Example 12 at 8 μg/ml): <0.031 µg/mL
- MIC ATB combined with Example 13 @8 μg/ml (ECO 190317; with Example 13 at 8 μg/ml): <0.031 µg/mL
- MIC ATB combined with Example 14 @8 μg/ml (ECO 190317; with Example 14 at 8 μg/ml): <0.031 µg/mL
- MIC ATB combined with Example 15 @4 μgml (ECO 190317; with Example 15 at 4 μg/ml): <0.031 µg/mL
- MIC ATB combined with Example 16 @4 μg/ml (ECO 190317; with Example 16 at 4 μg/ml): <0.031 µg/mL
- MIC ATB alone (ECL P99; antibiotic alone): 0.5 µg/mL
- MIC ATB combined with Example 1 @8 μg/ml (ECL P99; with Example 1 @8 μg/ml): <0.031 µg/mL
- MIC ATB combined with Example 1 @8 μg/ml (ECL P99; with Example 1 at 8 μg/ml): <0.031 µg/mL
- MIC ATB combined with Example 7 @8 μgml (ECL P99; with Example 7 at 8 μg/ml): 0.25 µg/mL
- MIC ATB combined with Example 9 @4 μg/ml (ECL P99; with Example 9 @4 μg/ml): <0.031 µg/mL
- MIC ATB combined with Example 9 @4 μg/ml (ECL P99; with Example 9 at 4 μg/ml): <0.031 µg/mL
- MIC ATB combined with Example 11 @8 μg/ml (ECL P99; with Example 11 at 8 μg/ml): <0.031 µg/mL
- MIC ATB combined with Example 12 @8 μg/ml (ECL P99; with Example 12 at 8 μg/ml): <0.031 µg/mL
- MIC ATB combined with Example 13 @8 μg/ml (ECL P99; with Example 13 at 8 μg/ml): 0.25 µg/mL
- MIC ATB combined with Example 14 @8 μg/ml (ECL P99; with Example 14 at 8 μg/ml): <0.031 µg/mL
- MIC ATB combined with Example 15 @4 μgml (ECL P99; with Example 15 at 4 μg/ml): <0.031 µg/mL
- MIC ATB combined with Example 16 @4 μg/ml (ECL P99; with Example 16 at 4 μg/ml): <0.031 µg/mL
- MIC ATB alone (SAU 29213; antibiotic alone): 0.25 µg/mL
- MIC ATB combined with Example 1 @8 μg/ml (SAU 29213; with Example 1 @8 μg/ml): 0.125 µg/mL
- MIC ATB combined with Example 1 @8 μg/ml (SAU 29213; with Example 1 at 8 μg/ml): 0.125 µg/mL
- MIC ATB combined with Example 7 @8 μgml (SAU 29213; with Example 7 at 8 μg/ml): 0.25 µg/mL
- MIC ATB combined with Example 9 @4 μg/ml (SAU 29213; with Example 9 @4 μg/ml): <0.031 µg/mL
- MIC ATB combined with Example 9 @4 μg/ml (SAU 29213; with Example 9 at 4 μg/ml): <0.031 µg/mL
- MIC ATB combined with Example 11 @8 μg/ml (SAU 29213; with Example 11 at 8 μg/ml): <=0.031 μg/mL
- MIC ATB combined with Example 12 @8 μg/ml (SAU 29213; with Example 12 at 8 μg/ml): <0.031 µg/mL
- MIC ATB combined with Example 13 @8 μg/ml (SAU 29213; with Example 13 at 8 μg/ml): 0.063 µg/mL
- MIC ATB combined with Example 14 @8 μg/ml (SAU 29213; with Example 14 at 8 μg/ml): <0.031 µg/mL
- MIC ATB combined with Example 15 @4 μgml (SAU 29213; with Example 15 at 4 μg/ml): <0.031 µg/mL
- MIC ATB combined with Example 16 @4 μg/ml (SAU 29213; with Example 16 at 4 μg/ml): <0.031 µg/mL
- MIC ATB alone (KPN BAA-1898; antibiotic alone): 1 µg/mL
- MIC ATB combined with Example 1 @8 μg/ml (KPN BAA-1898; with Example 1 @8 μg/ml): 1 µg/mL
- MIC ATB combined with Example 1 @8 μg/ml (KPN BAA-1898; with Example 1 at 8 μg/ml): 1 µg/mL
- MIC ATB combined with Example 7 @8 μgml (KPN BAA-1898; with Example 7 at 8 μg/ml): 1 µg/mL
- MIC ATB combined with Example 9 @4 μg/ml (KPN BAA-1898; with Example 9 @4 μg/ml): <0.031 µg/mL
- MIC ATB combined with Example 9 @4 μg/ml (KPN BAA-1898; with Example 9 at 4 μg/ml): <0.031 µg/mL
- MIC ATB combined with Example 11 @8 μg/ml (KPN BAA-1898; with Example 11 at 8 μg/ml): <0.031 µg/mL
- MIC ATB combined with Example 12 @8 μg/ml (KPN BAA-1898; with Example 12 at 8 μg/ml): <0.031 µg/mL
- MIC ATB combined with Example 13 @8 μg/ml (KPN BAA-1898; with Example 13 at 8 μg/ml): 1 µg/mL
- MIC ATB combined with Example 14 @8 μg/ml (KPN BAA-1898; with Example 14 at 8 μg/ml): <0.031 µg/mL
- MIC ATB combined with Example 15 @4 μgml (KPN BAA-1898; with Example 15 at 4 μg/ml): <0.031 µg/mL
- MIC ATB combined with Example 16 @4 μg/ml (KPN BAA-1898; with Example 16 at 4 μg/ml): <0.031 µg/mL
- MIC ATB alone (KPN 6299; antibiotic alone): 1 µg/mL
- MIC ATB combined with Example 1 @8 μg/ml (KPN 6299; with Example 1 @8 μg/ml): 1 µg/mL
- MIC ATB combined with Example 1 @8 μg/ml (KPN 6299; with Example 1 at 8 μg/ml): 1 µg/mL
- MIC ATB combined with Example 7 @8 μgml (KPN 6299; with Example 7 at 8 μg/ml): 1 µg/mL
- MIC ATB combined with Example 9 @4 μg/ml (KPN 6299; with Example 9 @4 μg/ml): 0.063 µg/mL
- MIC ATB combined with Example 9 @4 μg/ml (KPN 6299; with Example 9 at 4 μg/ml): 0.063 µg/mL
Structure (SMILES): CN(C)c1cc(NC(=O)CNC(C)(C)C)c(O)c2c1C[C@H]1C[C@H]3[C@H](N(C)C)C(O)=C(C(N)=O)C(=O)[C@@]3(O)C(O)=C1C2=O [TGC]
